Reference: patent US10508127B2, “Conjugated bisphosphonates for the diagnosis and therapy of bone diseases” (SCV GmbH, priority 2014, dated 2019)
Marks after values point to notes of the source that are not given here.

Assays:
[1] = Ex vivo biodistribution (organ SUV) in healthy Wistar rats 60 min after tail vein injection; details: for Bone-to-organ ratio Blood / Bone-to-organ ratio Heart / Bone-to-organ ratio Intestine / Bone-to-organ ratio Kidneys / Bone-to-organ ratio Liver / Bone-to-organ ratio Lung / Bone-to-organ ratio Muscle / Bone-to-organ ratio Spleen: Wistar rats after 60 min; for SUV Blood / SUV Femur / SUV Heart / SUV Intestine / SUV Kidneys / SUV Liver / SUV Lung / SUV Muscle / SUV Spleen: Wistar rats, ex vivo, 60 min after injection, SUV (standard deviation) from five animals
Protocol: Under isoflurane anesthesia, 15-18 MBq of the ^68Ga-marked compound or of the ^177Lu-marked compounds, diluted in isotonic saline solution, was applied into the tail vein of healthy Wistar rats (N=5) having a weight between 140 and 220 g. The rats were killed 60 min after injection, organ samples were removed and weighed, and the accumulation of the marked bisphosphonate in the tissue was determined in SUV (standardized uptake value) according to the formula: SUV=(activity per g of tissue)/(injected activity) x body weight.

[2] = In vivo μPET experiments, pharmacological parameters (2-Compartment Model); details: Wistar rats
bone metastases [3] = assay: First therapeutic application / scintigraphy of [177Lu]DOTA^ZOL in a prostate carcinoma patient with disseminated bone metastases; format: in vivo
Protocol: FIG. 5: Distribution of [^177Lu]DOTA^ZOL in a patient with disseminated bone metastases: [^177Lu]DOTA^ZOL scintigraphy on a patient with prostate carcinoma 6 hours after injection. In a first therapeutic applications [sic], within two months, the PSA value (which represents an important marker in monitoring the progress of the prostate carcinoma) could be lowered from 478 ng/mL initially to 88 ng/mL after only one treatment with 5.5 GBq [^177Lu]DOTA^ZOL. ^177Lu-DOTAM^ZOL may be used equivalently.

bone metastases [4] = assay: PET/CT uptake (SUV max) in a patient with prostate carcinoma and bone metastases; format: in vivo; details: same patient; DOTA^ZOL PET/CT day n, HBED-PSMA^CC PET/CT day n + 2

| Compound | Bone-to-organ ratio Blood [1] | Bone-to-organ ratio Heart [1] | Bone-to-organ ratio Intestine [1] | Bone-to-organ ratio Kidneys [1] | Bone-to-organ ratio Liver [1] | Bone-to-organ ratio Lung [1] | Bone-to-organ ratio Muscle [1] | Bone-to-organ ratio Spleen [1] | SUV Blood [1] | SUV Femur [1] | SUV Heart [1] | SUV Intestine [1] | SUV Kidneys [1] | SUV Liver [1] | SUV Lung [1] | SUV Muscle [1] | SUV Spleen [1] | Elimination half-life t1/2(α) [2] | Elimination half-life t1/2(β) [2] | also measured |
| --- | --- | --- | --- | --- | --- | --- | --- | --- | --- | --- | --- | --- | --- | --- | --- | --- | --- | --- | --- | --- |
| O=C(O)CN1CCN(CC(=O)O)CCN(CC(=O)NCCC(P(=O)(O)O)P(=O)(O)O)CCN(CC(=O)O)CC1.[68Ga+3] [[^68Ga]BPAPD] | 3.73 | 10.03 | 12.35 | 5.73 | 8.68 | 7.47 | 18.88 | 13.96 | 0.86 (0.21) SUV | 3.21 (0.29) SUV | 0.32 (0.09) SUV | 0.26 (0.05) SUV | 0.56 (0.08) SUV | 0.37 (0.11) SUV | 0.43 (0.08) SUV | 0.17 (0.02) SUV | 0.23 (0.08) SUV | 5 min | 4 h |  |
| O=C(O)CN1CCN(CC(=O)O)CCN(CC(=O)NCCc2cn(CC(O)(P(=O)(O)O)P(=O)(O)O)cn2)CCN(CC(=O)O)CC1.[177Lu+3] [[^177Lu]DOTA^ZOL] |  |  |  |  |  |  |  |  |  |  |  |  |  |  |  |  |  |  |  | Selectivity of distribution (bone metastases [3]; first clinical studies, FIG. 5 scintigraphy 6 hours after injection): high selectivity; PSA value after treatment (bone metastases [3]; prostate carcinoma patient, within two months after only one treatment with 5.5 GBq, initially 478 ng/mL): 88 ng/mL |
| O=C(O)CN1CCN(CC(=O)O)CCN(CC(=O)NCCC(O)(P(=O)(O)O)P(=O)(O)O)CCN(CC(=O)O)CC1.[68Ga+3] [[^68Ga]DOTA^PAM] | 7.61 | 19.49 | 16.11 | 9.44 | 10.02 | 8.61 | 47.96 | 14.51 | 0.60 (0.03) SUV | 4.53 (0.17) SUV | 0.23 (0.02) SUV | 0.28 (0.12) SUV | 0.48 (0.06) SUV | 0.43 (0.04) SUV | 0.53 (0.16) SUV | 0.09 (0.02) SUV | 0.31 (0.04) SUV | 4.5 min | 4.5 h |  |
| O=C(O)CN1CCN(CC(=O)O)CCN(CC(=O)NCCc2cn(CC(O)(P(=O)(O)O)P(=O)(O)O)cn2)CCN(CC(=O)O)CC1.[68Ga+3] [[^68Ga]DOTA^ZOL] | 11.47 | 37.97 | 38.67 | 10.22 | 19.21 | 12.06 | 65.96 | 31.71 | 0.47 (0.19)^† SUV | 5.40 (0.62)^†‡ SUV | 0.14 (0.04)^†‡ SUV | 0.14 (0.08)^ SUV | 0.53 (0.04)^ SUV | 0.28 (0.03)^‡ SUV | 0.45 (0.11)^ SUV | 0.08 (0.02)^† SUV | 0.17 (0.02)^‡ SUV | 5 min | 2.3 h | SUV max, bone lesion 8th right rear rib (bone metastases [4]): 7.99 SUV max; SUV max, bone lesion C4 vertebral body and hip pedicle (bone metastases [4]): 12.38 SUV max; SUV max, bone lesion L2 vertebral body (bone metastases [4]): 68.92 SUV max; SUV max, bone lesion L3 vertebral body (bone metastases [4]): 62.96 SUV max; SUV max, bone lesion L4 vertebral body (bone metastases [4]): 34.51 SUV max; SUV max, bone lesion L5 vertebral body (bone metastases [4]): 21.94 SUV max; SUV max, bone lesion Left bones, upper ischium, and pubic bone (bone metastases [4]): 62.32 SUV max; SUV max, bone lesion Right acetabulum (bone metastases [4]): 25.39 SUV max; SUV max, bone lesion Right ischium (bone metastases [4]): 32.55 SUV max; SUV max, bone lesion Sacrum (bone metastases [4]): 17.98 SUV max; SUV max, bone lesion T9 vertebral body (bone metastases [4]): 17.08 SUV max; SUV max, bone lesion T11 vertebral body (bone metastases [4]): 32.29 SUV max; SUV max, soft tissue Bladder (bone metastases [4]): 15.53 SUV max; SUV max, soft tissue Left kidney (bone metastases [4]): 4.12 SUV max; SUV max, soft tissue Left parotid gland (bone metastases [4]): 1.46 SUV max; SUV max, soft tissue Liver (bone metastases [4]): 2.85 SUV max; SUV max, soft tissue Right kidney (bone metastases [4]): 9.34 SUV max; SUV max, soft tissue Right parotid gland (bone metastases [4]): 1.22 SUV max; SUV max, soft tissue Spleen (bone metastases [4]): 4.50 SUV max |
